Experimental findings from US20110015119A1, “NOVEL SEMI-SYNTHETIC GLYCOPEPTIDES AS ANTIBACTERIAL AGENTS” (LEAD THERAPEUTICS, INC., priority 2009, published 2011) are described below.

Common to all, as to format: cell-based
For test [1], the system named is Staphylococcus aureus 2012 (VISA). In words: MIC by broth microdilution, SA 2012. The following applies: Staphylococcus aureus, VISA, read-out: MIC SA 2012, Staphylococcus aureus 2012 (VISA); class symbols. Here is the method:
(§1) Antibacterial activity in vitro is investigated by broth microdilution method in Meuller-Hinton broth as recommended by NCCLS. All strains tested are clinical isolates either sensitive or resistant to natural glycopeptides. MIC values were determined using the CLSI-recommended broth microdilution procedure (Clinical and Laboratory Standards Institute, Methods for Dilution Antimicrobial Susceptibility Tests for Bacteria That Grow Aerobically; Approved Standard-Seventh Edition.). Automated liquid handlers (Multidrop 384, Labsystems, Helsinki, Finland; Biomek 2000 and Multimek 96, Beckman Coulter, Fullerton Calif.) were used to conduct serial dilutions and liquid transfers. The MIC value for vancomycin is given for comparison. The abbreviations for organisms tested are as follow: SA 100—Staphylococcus aureus 100 (ATCC 29213); SA 757—Staphylococcus aureus 757 (MRSA); SA 2012—Staphylococcus aureus 2012 (VISA); SE 835—Staphylococcus epidermidis 835; SE 831—Staphylococcus epidermidis 831 (MRSE); EFc 101—Enterococcus faecalis 101 (ATCC 29212); EFc 848—Enterococcus faecalis 848 (VRE, Van A); EFcm 800—Enterococcus faecium 800; EFcm 752—Enterococcus faecium 752 (VRE, Van A); SPNE 1195—Streptococcus pneumoniae 1195 (ATCC 49619); SPY 712—Streptococcus pyogenes 712.

For test [2], the system named is Staphylococcus aureus 757 (MRSA). Kind of test: MIC by broth microdilution, SA 757. Conditions: Staphylococcus aureus, MRSA, read-out: MIC SA 757. Here is the method:
as §1

For test [3], the system named is Streptococcus pneumoniae 1195 (ATCC 49619). Kind of test: MIC by broth microdilution, SPNE 1195. The following applies: Streptococcus pneumoniae, ATCC49619, read-out: MIC S PNE 1195. On the procedure:
as §1
(In broth dilution the organism is exposed to a series of concentrations in liquid medium.)

In test [4] the test system is Enterococcus faecium 800. In words: MIC by broth microdilution, EFcm 800. The following applies: Enterococcus faecium, 800, read-out: MIC E FCM 800. On the procedure:
as §1

Test [5] has as its system Enterococcus faecalis 101 (ATCC 29212). In words: MIC by broth microdilution, EFc 101. The following applies: Enterococcus faecalis, ATCC29212, read-out: MIC E FC 101, Enterococcus faecalis 101 (ATCC 29212); class symbols. Here is the method: as §1
For test [6], the system named is Staphylococcus epidermidis 835. In words: MIC by broth microdilution, SE 835. The following applies: Staphylococcus epidermidis, 835, read-out: MIC SE 835. Here is the method: as §1
In test [7] the test system is Enterococcus faecalis 848 (VRE, Van A). In words: MIC by broth microdilution, EFc 848. The following applies: Enterococcus faecalis, VRE, read-out: MIC E FC 848, Enterococcus faecalis 848 (VRE, Van A); class symbols. Here is the method:
as §1

In test [8] the test system is Enterococcus faecium 752 (VRE, Van A). In words: MIC by broth microdilution, EFcm 752. The following applies: Enterococcus faecium, VRE, read-out: MIC E FCM 752, Enterococcus faecium 752 (VRE, Van A); class symbols. On the procedure: as §1
In test [9] the test system is Staphylococcus aureus 100 (ATCC 29213). In words: MIC by broth microdilution, SA 100. The following applies: Staphylococcus aureus, ATCC29213, read-out: MIC SA 100. Here is the method: as §1
Test [10] deals with Streptococcus pyogenes 712. Kind of test: MIC by broth microdilution, SPY 712. The following applies: Streptococcus pyogenes, 712, read-out: MIC S PYO 712. On the procedure:
as §1

The test system of test [11] is Staphylococcus epidermidis 831 (MRSE). Kind of test: MIC by broth microdilution, SE 831. The following applies: Staphylococcus epidermidis, MRSE, read-out: MIC SE 831. Here is the method:
as §1

Molecules are shown by their SMILES. In brackets after ≈: the same amount, converted by molar mass.

Broadly, the MIC is the smallest concentration in the dilution series that meets the test's criterion for growth inhibition. With `CCCCCOCCNC(=O)Oc1cc(O)c2c(c1)[C@@H](C(=O)O)NC(=O)[C@H]1NC(=O)[C@H](NC(=O)[C@@H]3NC(=O)[C@H](CC(N)=O)NC(=O)[C@H](NC(=O)[C@@H](CC(C)C)NC)[C@H](O)c4ccc(c(Cl)c4)Oc4cc3cc(c4O[C@@H]3O[C@H](CO)[C@@H](O)[C@H](O)[C@H]3O[C@H]3C[C@](C)(N)[C@H](O)[C@H](C)O3)Oc3ccc(cc3Cl)[C@H]1O)c1ccc(O)c-2c1` (atropisomer, axis not shown) [Compound 348], the MIC in test [1] was in the range of 8 to 16 µg/mL (≈ 4.98 to 9.96 µM); in test [2], 2 to 4 µg/mL (≈ 1.24 to 2.49 µM); in test [3] it was 0.01 to 0.5 µg/mL (≈ 0.00622 to 0.311 µM); in test [4], 1 to 2 µg/mL (≈ 0.622 to 1.24 µM); in [5], 2 to 4 µg/mL (≈ 1.24 to 2.49 µM); in test [6] it was 4 to 8 µg/mL (≈ 2.49 to 4.98 µM). In addition, the MIC was greater than 16 µg/mL in [7]; greater than 16 µg/mL in test [8]; 2 to 4 µg/mL (≈ 1.24 to 2.49 µM) in test [9]; 0.5 to 1 µg/mL (≈ 0.311 to 0.622 µM) in test [10]; 4 to 8 µg/mL (≈ 2.49 to 4.98 µM) in test [11].
`CCCCCCOc1ccc(S(=O)(=O)NCCCCCCNC(=O)Oc2cc(O)c3c(c2)[C@@H](C(=O)O)NC(=O)[C@H]2NC(=O)[C@H](NC(=O)[C@@H]4NC(=O)[C@H](CC(N)=O)NC(=O)[C@H](NC(=O)[C@@H](CC(C)C)NC)[C@H](O)c5ccc(c(Cl)c5)Oc5cc4cc(c5O[C@@H]4O[C@H](CO)[C@@H](O)[C@H](O)[C@H]4O[C@H]4C[C@](C)(N)[C@H](O)[C@H](C)O4)Oc4ccc(cc4Cl)[C@H]2O)c2ccc(O)c-3c2)cc1` (atropisomer, axis not shown) [Compound 349]: the MIC in test [1] was in the range of 0.5 to 1 µg/mL (≈ 0.273 to 0.546 µM); in test [2], 0.01 to 0.5 µg/mL (≈ 0.00546 to 0.273 µM); in [3] it was 0.01 to 0.5 µg/mL (≈ 0.00546 to 0.273 µM); in [4], 0.01 to 0.5 µg/mL (≈ 0.00546 to 0.273 µM); in test [5], 0.01 to 0.5 µg/mL (≈ 0.00546 to 0.273 µM); in test [6], 0.01 to 0.5 µg/mL (≈ 0.00546 to 0.273 µM). For the same molecule, the MIC in test [7] is 4 to 8 µg/mL (≈ 2.18 to 4.37 µM); in test [8], 0.5 to 1 µg/mL (≈ 0.273 to 0.546 µM); in test [9] it was 0.01 to 0.5 µg/mL (≈ 0.00546 to 0.273 µM); in test [10], 0.01 to 0.5 µg/mL (≈ 0.00546 to 0.273 µM); in [11], 0.01 to 0.5 µg/mL (≈ 0.00546 to 0.273 µM).
In the case of `CCCCCCc1ccc(S(=O)(=O)NCCCCCNC(=O)Oc2cc(O)c3c(c2)[C@@H](C(=O)O)NC(=O)[C@H]2NC(=O)[C@H](NC(=O)[C@@H]4NC(=O)[C@H](CC(N)=O)NC(=O)[C@H](NC(=O)[C@@H](CC(C)C)NC)[C@H](O)c5ccc(c(Cl)c5)Oc5cc4cc(c5O[C@@H]4O[C@H](CO)[C@@H](O)[C@H](O)[C@H]4O[C@H]4C[C@](C)(N)[C@H](O)[C@H](C)O4)Oc4ccc(cc4Cl)[C@H]2O)c2ccc(O)c-3c2)cc1` (atropisomer, axis not shown) [Compound 350], the MIC in test [1], in test [2], in test [3], in test [4], in test [5] and in test [6] was 0.01 to 0.5 µg/mL (≈ 0.00555 to 0.278 µM) in each case. Further, the minimal inhibitory concentration (MIC) in [7] lay in the range of 4 to 8 µg/mL (≈ 2.22 to 4.44 µM); in test [8] it was 1 to 2 µg/mL (≈ 0.555 to 1.11 µM); in test [9], 0.01 to 0.5 µg/mL (≈ 0.00555 to 0.278 µM); in [10], 0.01 to 0.5 µg/mL (≈ 0.00555 to 0.278 µM); in test [11], 0.01 to 0.5 µg/mL (≈ 0.00555 to 0.278 µM).
For the molecule `CCCCOc1ccc(CCNC(=O)Oc2cc(O)c3c(c2)[C@@H](C(=O)O)NC(=O)[C@H]2NC(=O)[C@H](NC(=O)[C@@H]4NC(=O)[C@H](CC(N)=O)NC(=O)[C@H](NC(=O)[C@@H](CC(C)C)NC)[C@H](O)c5ccc(c(Cl)c5)Oc5cc4cc(c5O[C@@H]4O[C@H](CO)[C@@H](O)[C@H](O)[C@H]4O[C@H]4C[C@](C)(N)[C@H](O)[C@H](C)O4)Oc4ccc(cc4Cl)[C@H]2O)c2ccc(O)c-3c2)cc1` (atropisomer, axis not shown) [Compound 351], the MIC in test [1] was 4 to 8 µg/mL (≈ 2.4 to 4.79 µM); in test [2] it was 0.01 to 0.5 µg/mL (≈ 0.00599 to 0.3 µM); in test [3], 0.01 to 0.5 µg/mL (≈ 0.00599 to 0.3 µM); in [4], 0.01 to 0.5 µg/mL (≈ 0.00599 to 0.3 µM); in test [5], 0.5 to 1 µg/mL (≈ 0.3 to 0.599 µM); in [6], 0.5 to 1 µg/mL (≈ 0.3 to 0.599 µM). In addition, the MIC in [7] is greater than 16 µg/mL; in [8], 8 to 16 µg/mL (≈ 4.79 to 9.59 µM); in [9], 0.01 to 0.5 µg/mL (≈ 0.00599 to 0.3 µM); in [10], 0.01 to 0.5 µg/mL (≈ 0.00599 to 0.3 µM); in test [11], 0.5 to 1 µg/mL (≈ 0.3 to 0.599 µM).
